# Measured values published in patent US20230085307A1, “PYRIDAZINONE COMPOUND AND HERBICIDE” (NISSAN CHEMICAL CORPORATION, priority 2019, published 2023).
# How the values were obtained:
# [1] = system: Italian ryegrass; test: Test Example 5: herbicidal effect by foliage application, plastic box (Table 20, symbol K); type: in vivo, Italian ryegrass (Lolium multiflorum); details: evaluated three weeks after application
# Method in brief: (§1)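 Foliar spray test: emulsion formulation diluted in water to a set application rate, sprayed onto 14-day-old plants raised in diluvial soil at 25° C to 30° C under glass. Both herbicidal effect and crop effect rated visually three weeks later.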
# [2] = system: redroot pigweed; test: Test Example 4: herbicidal effect by soil treatment (Table 19, symbol N); type: in vivo, redroot pigweed (Amaranthus retroflexus); details: amount of applied herbicide 320 g/ha
# Method in brief: (§2)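 Step 1: sow seeds in sterilized diluvial soil, cover ~1.5 cm. Step 2: spray diluted emulsion onto soil surface at predetermined rate. Step 3: greenhouse, 25–30° C, three weeks. Step 4: grade effect on each plant by earlier criteria.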
# [3] = system: windgrass; test: Test Example 5: herbicidal effect by foliage application, plastic box (Table 20, symbol L); type: in vivo, windgrass (Apera spica-venti); details: evaluated three weeks after application
# Method in brief: as §1
# [4] = system: velvetleaf; test: Test Example 5: herbicidal effect by foliage application, plastic box (Table 20, symbol M); type: in vivo, velvetleaf (Abutilon theophrasti); details: evaluated three weeks after application
# Method in brief: as §1
# [5] = system: green foxtail; test: Test Example 4: herbicidal effect by soil treatment (Table 19, symbol G); type: in vivo, green foxtail (Setaria viridis); details: amount of applied herbicide 320 g/ha
# Method in brief: as §2
# [6] = system: barnyard grass; test: Test Example 5: herbicidal effect by foliage application, plastic box (Table 20, symbol H); type: in vivo, barnyard grass (Echinochloa crus-galli); details: evaluated three weeks after application
# Method in brief: as §1
# [7] = system: barnyard grass; test: Test Example 3: herbicidal effect by foliage application, Wagner pot (Table 18, symbol H); type: in vivo, barnyard grass (Echinochloa crus-galli)
# Method in brief: (§3)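 Plants were sown in alluvial soil held under 0.1–0.5 cm standing water and grown 14 days in a greenhouse at 25–30 °C. An emulsifiable formulation, water-diluted to the set dose, was then sprayed onto the foliage, and effects were scored three weeks later using previously defined criteria.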
# [8] = system: barnyard grass; test: Test Example 4: herbicidal effect by soil treatment (Table 19, symbol H); type: in vivo, barnyard grass (Echinochloa crus-galli); details: amount of applied herbicide 320 g/ha
# Method in brief: as §2
# [9] = system: persian speedwell; test: Test Example 4: herbicidal effect by soil treatment (Table 19, symbol R); type: in vivo, Persian speedwell (Veronica persica); details: amount of applied herbicide 320 g/ha
# Method in brief: as §2
# [10] = system: green foxtail; test: Test Example 5: herbicidal effect by foliage application, plastic box (Table 20, symbol G); type: in vivo, green foxtail (Setaria viridis); details: evaluated three weeks after application
# Method in brief: as §1
# [11] = system: blackgrass; test: Test Example 5: herbicidal effect by foliage application, plastic box (Table 20, symbol J); type: in vivo, blackgrass (Alopecurus myosuroides); details: evaluated three weeks after application
# Method in brief: as §1
# [12] = system: lambsquarters; test: Test Example 5: herbicidal effect by foliage application, plastic box (Table 20, symbol O); type: in vivo, lambsquarters (Chenopodium album); details: evaluated three weeks after application
# Method in brief: as §1
# [13] = system: redroot pigweed; test: Test Example 5: herbicidal effect by foliage application, plastic box (Table 20, symbol N); type: in vivo, redroot pigweed (Amaranthus retroflexus); details: evaluated three weeks after application
# Method in brief: as §1
# [14] = system: wild oat; test: Test Example 4: herbicidal effect by soil treatment (Table 19, symbol I); type: in vivo, wild oat (Avena fatua); details: amount of applied herbicide 320 g/ha
# Method in brief: as §2
# [15] = system: persian speedwell; test: Test Example 5: herbicidal effect by foliage application, plastic box (Table 20, symbol R); type: in vivo, Persian speedwell (Veronica persica); details: evaluated three weeks after application
# Method in brief: as §1
# [16] = system: southern crabgrass; test: Test Example 4: herbicidal effect by soil treatment (Table 19, symbol F); type: in vivo, southern crabgrass (Digitaria ciliaris); details: amount of applied herbicide 320 g/ha
# Method in brief: as §2
# [17] = system: chickweed; test: Test Example 5: herbicidal effect by foliage application, plastic box (Table 20, symbol P); type: in vivo, common chickweed (Stellaria media); details: evaluated three weeks after application
# Method in brief: as §1
# [18] = system: windgrass; test: Test Example 4: herbicidal effect by soil treatment (Table 19, symbol L); type: in vivo, windgrass (Apera spica-venti); details: amount of applied herbicide 320 g/ha
# Method in brief: as §2
# [19] = system: rice flat sedge; test: Test Example 3: herbicidal effect by foliage application, Wagner pot (Table 18, symbol E); type: in vivo, rice flat sedge (Cyperus iria)
# Method in brief: as §3
# [20] = system: blackgrass; test: Test Example 4: herbicidal effect by soil treatment (Table 19, symbol J); type: in vivo, blackgrass (Alopecurus myosuroides); details: amount of applied herbicide 320 g/ha
# Method in brief: as §2
# [21] = system: chickweed; test: Test Example 4: herbicidal effect by soil treatment (Table 19, symbol P); type: in vivo, common chickweed (Stellaria media); details: amount of applied herbicide 320 g/ha
# Method in brief: as §2
# [22] = system: lambsquarters; test: Test Example 4: herbicidal effect by soil treatment (Table 19, symbol O); type: in vivo, lambsquarters (Chenopodium album); details: amount of applied herbicide 320 g/ha
# Method in brief: as §2
# [23] = system: Chinese sprangletop; test: Test Example 3: herbicidal effect by foliage application, Wagner pot (Table 18, symbol D); type: in vivo, chinese sprangletop (Leptochloa chinensis)
# Method in brief: as §3
# [24] = system: Italian ryegrass; test: Test Example 4: herbicidal effect by soil treatment (Table 19, symbol K); type: in vivo, Italian ryegrass (Lolium multiflorum); details: amount of applied herbicide 320 g/ha
# Method in brief: as §2
# [25] = system: velvetleaf; test: Test Example 4: herbicidal effect by soil treatment (Table 19, symbol M); type: in vivo, velvetleaf (Abutilon theophrasti); details: amount of applied herbicide 320 g/ha
# Method in brief: as §2
# [26] = system: wild oat; test: Test Example 5: herbicidal effect by foliage application, plastic box (Table 20, symbol I); type: in vivo, wild oat (Avena fatua); details: evaluated three weeks after application
# Method in brief: as §1
# [27] = system: southern crabgrass; test: Test Example 5: herbicidal effect by foliage application, plastic box (Table 20, symbol F); type: in vivo, southern crabgrass (Digitaria ciliaris); details: evaluated three weeks after application
# Method in brief: as §1
# [28] = amount of applied herbicide 320 g/ha
# [29] = amount of applied herbicide 320 g/ha, foliage application after 14-day growth
structure (smiles),measurement,setting,value
CCCC(=O)Oc1c(C)nn(C)c(=O)c1-c1c(-c2cccc(OCC)c2)sc2ccc(F)cc12 [2-212],herbicidal effect on K: Italian ryegrass (criteria 0-5),"[1]; foliage application, 320 g/ha",4 (Herbicidal rate of 70% or more and less than 90%)
same,"N: redroot pigweed, herbicidal effect rating",[2],3 (Herbicidal rate of 40% or more and less than 70%)
same,herbicidal effect on L: windgrass (criteria 0-5),"[3]; foliage application, 320 g/ha",3 (Herbicidal rate of 40% or more and less than 70%)
same,herbicidal effect on M: velvetleaf (criteria 0-5),"[4]; foliage application, 320 g/ha",3 (Herbicidal rate of 40% or more and less than 70%)
same,"G: green foxtail, herbicidal effect rating",[5],4 (Herbicidal rate of 70% or more and less than 90%)
same,herbicidal effect on H: barnyard grass (criteria 0-5),"[6]; foliage application, 320 g/ha",4 (Herbicidal rate of 70% or more and less than 90%)
same,herbicidal effect on H: barnyard grass,[7]; [28],5 (Herbicidal rate of 90% or more (almost completely withered))
same,"H: barnyard grass, herbicidal effect rating",[8],5 (Herbicidal rate of 90% or more (almost completely withered))
same,"R: persian speedwell, herbicidal effect rating",[9],4 (Herbicidal rate of 70% or more and less than 90%)
same,herbicidal effect on G: green foxtail (criteria 0-5),"[10]; foliage application, 320 g/ha",5 (Herbicidal rate of 90% or more (almost completely withered))
same,herbicidal effect on J: blackgrass (criteria 0-5),"[11]; foliage application, 320 g/ha",0 (Herbicidal rate of 5% or less (almost no effect))
same,herbicidal effect on O: lambsquarters (criteria 0-5),"[12]; foliage application, 320 g/ha",3 (Herbicidal rate of 40% or more and less than 70%)
same,herbicidal effect on N: redroot pigweed (criteria 0-5),"[13]; foliage application, 320 g/ha",5 (Herbicidal rate of 90% or more (almost completely withered))
same,"I: wild oat, herbicidal effect rating",[14],0 (Herbicidal rate of 5% or less (almost no effect))
same,herbicidal effect on R: persian speedwell (criteria 0-5),"[15]; foliage application, 320 g/ha",5 (Herbicidal rate of 90% or more (almost completely withered))
same,"F: southern crabgrass, herbicidal effect rating",[16],3 (Herbicidal rate of 40% or more and less than 70%)
same,herbicidal effect on P: chickweed (criteria 0-5),"[17]; foliage application, 320 g/ha",5 (Herbicidal rate of 90% or more (almost completely withered))
same,"L: windgrass, herbicidal effect rating",[18],0 (Herbicidal rate of 5% or less (almost no effect))
same,herbicidal effect on E: rice flat sedge,[19]; [28],4 (Herbicidal rate of 70% or more and less than 90%)
same,"J: blackgrass, herbicidal effect rating",[20],0 (Herbicidal rate of 5% or less (almost no effect))
same,"P: chickweed, herbicidal effect rating",[21],1 (Herbicidal rate of 5% or more and less than 20%)
same,"O: lambsquarters, herbicidal effect rating",[22],1 (Herbicidal rate of 5% or more and less than 20%)
same,herbicidal effect on D: Chinese sprangletop,[23]; [28],3 (Herbicidal rate of 40% or more and less than 70%)
same,"K: Italian ryegrass, herbicidal effect rating",[24],3 (Herbicidal rate of 40% or more and less than 70%)
same,"M: velvetleaf, herbicidal effect rating",[25],0 (Herbicidal rate of 5% or less (almost no effect))
same,herbicidal effect on I: wild oat (criteria 0-5),"[26]; foliage application, 320 g/ha",0 (Herbicidal rate of 5% or less (almost no effect))
same,herbicidal effect on F: southern crabgrass (criteria 0-5),"[27]; foliage application, 320 g/ha",5 (Herbicidal rate of 90% or more (almost completely withered))
CSc1ccc(-c2sc3c(Cl)cccc3c2-c2c(O)c(C)nn(C)c2=O)cc1 [4-088],"Herbicidal effect by foliage application, K: Italian ryegrass",[1]; [29],4 (Herbicidal rate of 70% or more and less than 90%)
same,"Herbicidal effect by soil treatment, N: redroot pigweed",[2],5 (Herbicidal rate of 90% or more (almost completely withered))
same,"Herbicidal effect by foliage application, L: windgrass",[3]; [29],5 (Herbicidal rate of 90% or more (almost completely withered))
same,"Herbicidal effect by foliage application, M: velvetleaf",[4]; [29],5 (Herbicidal rate of 90% or more (almost completely withered))
same,"Herbicidal effect by soil treatment, G: green foxtail",[5],0 (Herbicidal rate of 5% or less (almost no effect))
same,"Herbicidal effect by foliage application, H: barnyard grass",[6]; [29],3 (Herbicidal rate of 40% or more and less than 70%)
same,herbicidal effect on barnyard grass (H),[7]; 320 g/ha,5 (Herbicidal rate of 90% or more (almost completely withered))
same,"Herbicidal effect by soil treatment, H: barnyard grass",[8],0 (Herbicidal rate of 5% or less (almost no effect))
same,"Herbicidal effect by soil treatment, R: persian speedwell",[9],3 (Herbicidal rate of 40% or more and less than 70%)
same,"Herbicidal effect by foliage application, G: green foxtail",[10]; [29],2 (Herbicidal rate of 20% or more and less than 40%)
same,"Herbicidal effect by foliage application, J: blackgrass",[11]; [29],2 (Herbicidal rate of 20% or more and less than 40%)
same,"Herbicidal effect by foliage application, O: lambsquarters",[12]; [29],5 (Herbicidal rate of 90% or more (almost completely withered))
same,"Herbicidal effect by foliage application, N: redroot pigweed",[13]; [29],5 (Herbicidal rate of 90% or more (almost completely withered))
same,"Herbicidal effect by soil treatment, I: wild oat",[14],0 (Herbicidal rate of 5% or less (almost no effect))
same,"Herbicidal effect by foliage application, R: persian speedwell",[15]; [29],5 (Herbicidal rate of 90% or more (almost completely withered))
same,"Herbicidal effect by soil treatment, F: southern crabgrass",[16],0 (Herbicidal rate of 5% or less (almost no effect))
same,"Herbicidal effect by foliage application, P: chickweed",[17]; [29],5 (Herbicidal rate of 90% or more (almost completely withered))
same,"Herbicidal effect by soil treatment, L: windgrass",[18],0 (Herbicidal rate of 5% or less (almost no effect))
same,herbicidal effect on rice flat sedge (E),[19]; 320 g/ha,5 (Herbicidal rate of 90% or more (almost completely withered))
same,"Herbicidal effect by soil treatment, J: blackgrass",[20],0 (Herbicidal rate of 5% or less (almost no effect))
same,"Herbicidal effect by soil treatment, P: chickweed",[21],0 (Herbicidal rate of 5% or less (almost no effect))
same,"Herbicidal effect by soil treatment, O: lambsquarters",[22],4 (Herbicidal rate of 70% or more and less than 90%)
same,herbicidal effect on Chinese sprangletop (D),[23]; 320 g/ha,3 (Herbicidal rate of 40% or more and less than 70%)
same,"Herbicidal effect by soil treatment, K: Italian ryegrass",[24],3 (Herbicidal rate of 40% or more and less than 70%)
same,"Herbicidal effect by soil treatment, M: velvetleaf",[25],0 (Herbicidal rate of 5% or less (almost no effect))
same,"Herbicidal effect by foliage application, I: wild oat",[26]; [29],4 (Herbicidal rate of 70% or more and less than 90%)
same,"Herbicidal effect by foliage application, F: southern crabgrass",[27]; [29],0 (Herbicidal rate of 5% or less (almost no effect))
